Reference: US10851075B2, “Stat3 pathway inhibitors and cancer stem cell inhibitors” (Sumitomo Dainippon Pharma Oncology, Inc., priority 2007, dated 2020)
Read-outs that look alike come from different tables or passages of the source.

What was measured:
CD44^low FaDu cells = assay: Anti-CSC MTT assay, CD44low FaDu cells; assay type: cell-based; conditions: Homo sapiens, 48 h
HeLa cells = assay: MTT cell viability, HeLa; assay type: cell-based; conditions: Homo sapiens, MTT at 24 hours
From the text: (§1) Cell Culture: HeLa, DU145, H1299, DLD1, SW480, A549, MCF7, LN18, HCT116, HepG2, Paca2, Panel, LNcap, FaDu, HT29, and PC3 cells (ATCC, Manassas, Va.) were maintained in Dulbecco's Modified Eagle Medium (DMEM) (Invitrogen, Carlsbad, Calif.) supplemented with 10% fetal bovine serum (MS) (Gemini Bio-Products, West Sacramento, Calif.) and 5% penicillin/streptomycin/amphotercin B (Invitrogen).
(§2) Cell Viability Determination: For 3-(4,5 dimethylthiazol-2-yl)-2,5-diphenyltetrazolium (MTT) (Sigma-Aldrich, St. Louis, Mo.) analysis, cells were plated in 96 well plates at 10,000 cells per well. 24 hours after plating, compound was added to cells at indicated doses. 22 hours following compound addition, MTT was added to each well (0.5 mg/ml, final concentration) and plates were incubated for an additional 2 hours at 37° C., Medium was then aspirated and the formazan product was solubilized in 100 μl of isopropyl alcohol. The absorbance of each well was measured at 570 nm using a microplate reader.
(§3) Identification of compounds that are apoptotic to a broad spectrum of cancer cells in vitro. Cells plated in 96 well plates and treated with indicated compounds were subjected to MTT analysis at 24 hours following compound treatment to determine cell viability.

DU145 cells = assay: MTT cell viability, DU145; assay type: cell-based; conditions: Homo sapiens, DU-145, MTT at 24 hours
From the text: as §1, §2, §3

CD44^high FaDu cells = assay: Anti-CSC MTT assay, CD44high FaDu cells; assay type: cell-based; conditions: Homo sapiens, 48 h
Experimental: as §2
CD44^high cells were isolated by FACS according to the methods described in Ponti et al., with slight modification. Briefly, after trypsinization and recovery of cells for 30 minutes at 37° C. in growth media, cells were pelleted at 400×g and were resuspended in PBS with 2% FBS and 1 mM EDTA at 1×10^6 cells/mL. Cells were then incubated on ice with a 1:100 dilution of CD44-FITC (BD Biosicences, San Diego, Calif.) for 15 minutes. Alternatively, CD24-PE (BD Bioscences, San Diego, Calif.) (1:100) was utilized for negative selection. After washing three times, cells were resuspended at 2×10^6/mL and passed through a […] mesh before sorting
(§4) In order to test compounds for anti-CSC activity, freshly isolated CSCs (SW480 Hoechst SP cells or CD44^high FaDu cells) were exposed to a dose range (30-0.117 μM) of compound for 48 h before examining cell viability by MTT assay. IC50s were estimated by plotting the percentage of surviving cells. As shown in Table 7 and Table 8, the compounds of present invention can target cancer stem cells.

[1] = target: T1, Stat3 DNA-binding activity (Homo sapiens, UniProt P40763); assay: Stat3 DNA binding assay (EMSA), HeLa nuclear extract; assay type: biochemical; conditions: for inhibition % 1 × MTT IC50: compound at 1 × MTT IC50, untreated Stat3 retarded band set as 100; for inhibition % 3 × MTT IC50: compound at 3 × MTT IC50, untreated Stat3 retarded band set as 100
T1 construct: endogenous in cells; host or cells: HeLa cells (nuclear extract)
Experimental: STAT3 DNA Binding Assay: Electrophoretic mobility shift assay (EMSA) was performed as described by the manufacturer (Li-Cor Biosciences, Lincoln, Nebr.). Briefly, nuclear extracts were made from HeLa cells using the NucBuster Protein Extraction Kit as described by the manufacturer (EMD Biosciences, San Diego, Calif.). 5 μg of nuclear extract was pre-incubated with the indicated dose of indicated compound for 30 minutes prior to a 15-minute incubation with the IR700-labeled consensus Stat3 oligonucleotide. Samples were then electrophoresed on a polyacrylamide gel and directly scanned using the Odyssey infrared imaging system (Li-Cor Biosciences). For the enzyme-linked immunosorbent assay (ELISA), 5 μg of nuclear extract was preincubated with indicated concentration of indicated compound for 30 minutes prior to the addition of biotinylated oligo (5′-Biotin-[…]-3′). Stat3-DNA complexes were then captured on streptavidin coated 96 well plates (Pierce, Rockford, Ill.). Bound complexes were then incubated with Stat3 polyclonal antibody (Santa Cruz Biotechnology, Santa Cruz, Calif.) followed by anti-rabbit HRP conjugated secondary antibody (GE Healthcare, Pittsburgh, Pa.). Bound antibody was then visualized by addition of TMB substrate (Pierce) and absorbance measured at 450 nm.
Inhibition of Stat3 DNA-binding activity. Nuclear extracts from HeLa cells, which contain constitutively activated Stat3 as detected by phoshporylation at the tyrosine 705 residue, were used to perform Stat3 EMSAs to monitor Stat3 DNA binding activity. Nuclear extracts were incubated with indicated compound prior to incubation with IR700-labeled Stat3 consensus oligonucleotide. Binding of Stat3 to the oligonucleotide was monitored by gel electrophoresis and detection using a LiCor Odyssey infrared scanner.
To calculate the inhibition %, the density of the untreated Stat3 retarded band (control) was set as 100 and the inhibition % was the difference between the control and the relative DNA binding activity of the drug-treated samples.

Panc1 cells = assay: MTT cell viability, Panc1; assay type: cell-based; conditions: Homo sapiens, PANC-1; Panc1, Pancreas; MTT at 24 hours; Table 3
From the text: as §1, §2, §3

SW480 cells = assay: MTT cell viability, SW480; assay type: cell-based; conditions: Homo sapiens; SW480, Colon; MTT at 24 hours; Table 3
From the text: as §1, §2, §3

PC3 cells = assay: MTT cell viability, PC3; assay type: cell-based; conditions: Homo sapiens, PC-3; PC3, Prostate; MTT at 24 hours; Table 3
From the text: as §1, §2, §3

A549 cells = assay: MTT cell viability, A549; assay type: cell-based; conditions: Homo sapiens; A549, Lung; MTT at 24 hours following compound treatment; Table 3
From the text: as §1, §2, §3

HCT116 cells = assay: MTT cell viability, HCT116; assay type: cell-based; conditions: Homo sapiens, HCT-116; HCT116, Colon; MTT at 24 hours; Table 3
From the text: as §1, §2, §3

HT29 cells = assay: MTT cell viability, HT29; assay type: cell-based; conditions: Homo sapiens, HT-29; HT29, Colon; MTT at 24 hours; Table 3
From the text: as §1, §2, §3

MCF7 cells = assay: MTT cell viability, MCF7; assay type: cell-based; conditions: Homo sapiens; MCF7, Breast; MTT at 24 hours; Table 3
From the text: as §1, §2, §3

DLD1 cells = assay: MTT cell viability, DLD1; assay type: cell-based; conditions: Homo sapiens, DLD-1; DLD1, Colon; MTT at 24 hours; Table 3
From the text: as §1, §2, §3

[2] = system: Stat3 transcription activity; assay: Stat3-luciferase (Stat3-Luc) reporter assay in HeLa cells, OSM stimulated; assay type: cell-based; conditions: Homo sapiens, compound 30 minutes before 25 ng/ml oncostatin M, 6 hours, read-out: IC50 in Stat3-Luc assays
Experimental: Luciferase Reporter Assay: HeLa Cells were co-transfected with Stat3-luciferase (Stat3-Luc) reporter vector (Panomics, Fremont, Calif.) and Renilla luciferase (Promega, Madison, Wis.) using Lipofectamine 2000 as described by the manufacturer (Invitrogen). Following transfection, cells were maintained in medium containing 0.5% FBS for 24 hours. Cells were then treated with the indicated compound for 30 minutes prior to the addition of 25 ng/ml oncostatin M (OSM) (R&D Systems, Minneapolis, Minn.) to the medium. 6 hours following OSM addition, cells were harvested and levels of firefly and renilla luciferase were measured using the Dual-Glo Luciferase Assay System as described by the manufacturer (Promega).
Inhibition of Stat3 transcription activity. Compounds were tested for their ability to inhibit Stat3 transcription activation activity in cells using a Stat3-luciferase (Stat3-luc) reporter construct. Cells transfected with Stat3-luc were cultured in reduced serum medium prior to addition of indicated compound for 30 minutes. Cells were then stimulated with 25 ng/ml oncostatin (OSM) for 6 hours followed by detection of Stat3-luc reporter activity.

Paca2 cells = assay: MTT cell viability, Paca2; assay type: cell-based; conditions: PaCa-2; Paca2, Pancreas; MTT at 24 hours; Table 3
From the text: as §1, §2, §3

H1299 cells = assay: MTT cell viability, H1299; assay type: cell-based; conditions: Homo sapiens, NCI-H1299, MTT at 24 hours
From the text: as §1, §2, §3

SW480 NSP cells = assay: Anti-CSC MTT assay, SW480 non-SP (NSP) cells; assay type: cell-based; conditions: Homo sapiens, 48 h
Experimental: as §2
(§5) Hoechst Side Population: To identify and isolate side population (SP) and non-SP fractions, SW480 cells were removed from the culture dish with trypsin and EDTA, pelleted by centrifugation, washed with phosphate-buffered saline (PBS), and resuspended at 37° C. in Dulbecco's modified Eagle's medium (DMEM) containing 2% FBS and 1 rnM HEPES. The cells were then labeled with Hoechst 33342 (Invitrogen) at a concentration of 5 μg/mL. The labeled cells were incubated for 120 minutes at 37° C., either alone or with 50 μM verapamil (Sigma-Aldrich, St. Louis). After staining, the cells were suspended in Hanks' balanced saline solution (MISS; Invitrogen) containing 2% FBS and 1 mM HEPES, passed a through 40 μm mesh filter, and maintained at 4° C. until flow cytometry analysis. The Hoechst dye was excited at 350 nm, and its fluorescence was measured at two wavelengths using a 450 DF10 (450/20 nm band-pass filter) and a 675LP (675 nm long-pass edge filter) optical filter. The gating on forward and side scatter was not stringent, and only debris was excluded.
as §4

SW480 Hoechst SP cells = assay: Anti-CSC MTT assay, SW480 Hoechst side population (SP) cells; assay type: cell-based; conditions: Homo sapiens, 48 h
Experimental: as §2, §5, §4

FaDu cells = assay: MTT cell viability, FaDu; assay type: cell-based; conditions: Homo sapiens, MTT at 24 hours, Table 4, read-out: IC50 (μM) FaDu
From the text: as §1, §2, §3

[3] = Hela, Table 4, read-out: IC50 (μM) Hela
[4] = DU145, Table 4, read-out: IC50 (μM) DU145
[5] = HeLa, Cervix, Table 3, read-out: IC50
[6] = DU145, Prostate, Table 3, read-out: IC50
[7] = H1299, Lung, Table 3, read-out: IC50
[8] = H1299, Table 4, read-out: IC50 (μM) H1299

T1 sequence (P40763 whole entry): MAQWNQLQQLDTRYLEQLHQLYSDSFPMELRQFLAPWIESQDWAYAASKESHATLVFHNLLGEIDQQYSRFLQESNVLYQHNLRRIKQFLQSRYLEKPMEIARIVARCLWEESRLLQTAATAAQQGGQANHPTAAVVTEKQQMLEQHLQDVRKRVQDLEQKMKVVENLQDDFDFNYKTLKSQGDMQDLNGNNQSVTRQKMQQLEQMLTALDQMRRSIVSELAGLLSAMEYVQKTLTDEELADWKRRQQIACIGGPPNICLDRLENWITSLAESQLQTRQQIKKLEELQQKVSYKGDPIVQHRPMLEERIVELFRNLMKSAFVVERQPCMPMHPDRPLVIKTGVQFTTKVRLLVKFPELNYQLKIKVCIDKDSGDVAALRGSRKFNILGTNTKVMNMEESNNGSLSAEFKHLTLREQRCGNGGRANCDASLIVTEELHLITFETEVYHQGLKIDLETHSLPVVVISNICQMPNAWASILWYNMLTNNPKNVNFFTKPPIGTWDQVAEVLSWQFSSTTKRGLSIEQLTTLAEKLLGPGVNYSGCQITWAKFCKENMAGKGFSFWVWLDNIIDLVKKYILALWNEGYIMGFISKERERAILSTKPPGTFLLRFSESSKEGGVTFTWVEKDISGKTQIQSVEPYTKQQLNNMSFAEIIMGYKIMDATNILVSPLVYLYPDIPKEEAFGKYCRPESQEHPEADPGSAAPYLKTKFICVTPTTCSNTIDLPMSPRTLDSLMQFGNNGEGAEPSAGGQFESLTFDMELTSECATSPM

Structure (SMILES) | IC50 (CD44^low FaDu cells) [µM] | IC50 (HeLa cells; [3]) [µM] | IC50 (DU145 cells; [4]) [µM] | IC50 (CD44^high FaDu cells) [µM] | inhibition % 1 × MTT IC50 [1] [%] | inhibition % 3 × MTT IC50 [1] [%] | IC50 (Panc1 cells) [nM] | IC50 (SW480 cells) [nM] | IC50 (PC3 cells) [nM] | IC50 (A549 cells) [nM] | IC50 (HeLa cells; [5]) [µM] | IC50 (DU145 cells; [6]) [µM] | IC50 (HCT116 cells) [nM] | IC50 (HT29 cells) [nM] | IC50 (MCF7 cells) [nM] | IC50 (DLD1 cells) [nM] | IC50 (Paca2 cells) [nM] | IC50 (H1299 cells; [7]) [µM] | IC50 (H1299 cells; [8]) [µM] | IC50 (SW480 NSP cells) [µM] | other results
C=Cc1cc2c(o1)C(=O)c1cc(F)ccc1C2=O [Compound 202] | 2.25 | 4.56 | 2.65 | 2.4 | 50 | 46 | – | – | – | – | – | – | – | – | – | – | – | – | – | – | –
CC(O)c1cc2c(o1)C(=O)c1cc(F)ccc1C2=O (centres unmarked) [Compound 304] | 2.49 | 1.67 | 1.84 | 2.41 | 25 | 55 | – | – | – | – | – | – | – | – | – | – | – | – | – | – | –
O=C(c1ccccc1)c1cc2c(o1)C(=O)c1ccccc1C2=O [Compound 412] | – | 1.69 | 0.327 | – | – | – | 3690 | 1310 | 4450 | 3160 | 1.69 | 0.33 | 2020 | 4640 | 1150 | 1110 | 640 | 0.52 | 0.524 | – | IC50 [2]: ~750 nM
CC(=O)c1cc2c(o1)C(=O)c1cc(Cl)ccc1C2=O [Compound 416] | – | 0.711 | 0.211 | – | – | – | 2590 | 440 | 3100 | 1900 | 0.62 | 0.22 | 690 | 1910 | 750 | 540 | 210 | 0.25 | 0.337 | – | inhibition of Stat3 DNA binding (in words) ([1]; HeLa nuclear extract, FIG. 6A/6B): inhibits Stat3 DNA-binding activity
CC(=O)c1cc2c(o1)C(=O)c1cc(F)ccc1C2=O [Compound 418] | – | 0.488 | 0.164 | – | 39 | 63 | 1540 | 760 | 3040 | 1060 | 0.8 | 0.18 | 610 | 1830 | 460 | 640 | 210 | 0.34 | 0.317 | 0.33 | IC50 (SW480 Hoechst SP cells): 0.34 µM
CC(=O)c1oc2c(c1CBr)C(=O)c1ccccc1C2=O [Compound 420] | – | – | – | – | 47 | 63 | – | – | – | – | – | – | – | – | – | – | – | – | – | 0.51 | IC50 (FaDu cells): 3.5 µM; IC50 (SW480 Hoechst SP cells): 0.59 µM
